Legend:
Experiment in all cases: relative viability (nuclei count vs DMSO), 5 days (fraction); higher = more cells survive
Elesclomol + Olaparib = compound: CN(NC(=O)CC(=O)NN(C)C(=S)c1ccccc1)C(=S)c1ccccc1 [Elesclomol] + O=C(c1cc(Cc2n[nH]c(=O)c3ccccc23)ccc1F)N1CCN(C(=O)C2CC2)CC1 [Olaparib] (partner 8 µM)
Outline: (§1)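 Cells from lung cancer lines were seeded into 1536-well plates and, one day later, dosed by pin tool. Treatments were either a single drug or a fixed dose of an anchor drug with five library-drug doses (not always all listed) in √10 steps. After 5 days, nuclei were stained in a one-step fixation (final 0.05% Triton X-100, 1% formaldehyde, 1 ug/ml Hoechst) and counted on 4× images, and relative viability is the treated-to-vehicle nuclei ratio, as the median of duplicate plates.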

Elesclomol + Lapatinib = compound: CN(NC(=O)CC(=O)NN(C)C(=S)c1ccccc1)C(=S)c1ccccc1 [Elesclomol] + CS(=O)(=O)CCNCc1ccc(-c2ccc3ncnc(Nc4ccc(OCc5cccc(F)c5)c(Cl)c4)c3c2)o1 [Lapatinib] (partner 2 µM)
Outline: as §1

Elesclomol + Phenformin = compound: CN(NC(=O)CC(=O)NN(C)C(=S)c1ccccc1)C(=S)c1ccccc1 [Elesclomol] + N=C(N)NC(=N)NCCc1ccccc1 [Phenformin] (partner 250 µM)
Outline: as §1

Elesclomol + Pemetrexed = compound: CN(NC(=O)CC(=O)NN(C)C(=S)c1ccccc1)C(=S)c1ccccc1 [Elesclomol] + Nc1nc2[nH]cc(CCc3ccc(C(=O)N[C@@H](CCC(=O)O)C(=O)O)cc3)c2c(=O)[nH]1 [Pemetrexed] (partner 0.2 µM)
Outline: as §1

Elesclomol + Palbociclib = compound: CN(NC(=O)CC(=O)NN(C)C(=S)c1ccccc1)C(=S)c1ccccc1 [Elesclomol] + CC(=O)c1c(C)c2cnc(Nc3ccc(N4CCNCC4)cn3)nc2n(C2CCCC2)c1=O [Palbociclib] (partner 0.5 µM)
Outline: as §1

Row | Cell Line | relative viability (Elesclomol + Olaparib; first compound 0.003162 µM) | relative viability (Elesclomol + Olaparib; first compound 0.01 µM) | relative viability (Elesclomol + Olaparib; first compound 0.03162 µM) | relative viability (Elesclomol + Olaparib; first compound 0.1 µM) | relative viability (Elesclomol + Lapatinib; first compound 0.003162 µM) | relative viability (Elesclomol + Lapatinib; first compound 0.03162 µM) | relative viability (Elesclomol + Lapatinib; first compound 0.1 µM) | relative viability (Elesclomol + Phenformin; first compound 0.003162 µM) | relative viability (Elesclomol + Phenformin; first compound 0.01 µM) | relative viability (Elesclomol + Phenformin; first compound 0.03162 µM) | relative viability (Elesclomol + Phenformin; first compound 0.1 µM) | relative viability (Elesclomol + Pemetrexed; first compound 0.003162 µM) | relative viability (Elesclomol + Pemetrexed; first compound 0.01 µM) | relative viability (Elesclomol + Pemetrexed; first compound 0.03162 µM) | relative viability (Elesclomol + Pemetrexed; first compound 0.1 µM) | relative viability (Elesclomol + Palbociclib; first compound 0.003162 µM) | relative viability (Elesclomol + Palbociclib; first compound 0.01 µM) | relative viability (Elesclomol + Palbociclib; first compound 0.03162 µM) | relative viability (Elesclomol + Palbociclib; first compound 0.1 µM) | relative viability (Elesclomol + Lapatinib; first compound 0.01 µM)
1 | LU99A | 0.286 | 0.223 | 0.247 | 0.173 | 1.02 | 0.921 | 0.135 | 0.804 | 0.561 | 0.901 | 0.219 | 0.188 | 0.183 | 0.185 | 0.198 | 0.394 | 0.269 | 0.408 | 0.179 | 
2 | LXF-289 | 1.11 | 1.01 | 0.939 | 0.544 | 0.925 | 0.876 | 0.677 | 0.516 | 0.406 | 0.487 | 0.467 | 0.894 | 0.971 | 0.867 | 0.552 | 0.627 | 0.561 | 0.548 | 0.36 | 0.881
3 | NCI-H441 | 0.48 | 0.602 | 0.311 | 0.148 |  |  |  | 0.788 | 0.838 | 0.604 | 0.45 | 0.239 | 0.234 | 0.18 | 0.0576 | 0.253 | 0.22 | 0.126 | 0.081 | 
4 | NCI-H522 | 0.617 | 0.812 | 0.618 | 0.431 |  |  |  | 0.681 | 0.736 | 0.668 | 0.549 | 1.08 | 1.09 | 1.18 | 0.641 | 1.16 | 0.819 | 0.894 | 0.632 | 
5 | NCI-H596 | 0.672 | 0.608 | 0.503 | 0.258 | 1.04 | 1.03 | 0.381 | 0.734 | 0.693 | 0.714 | 0.335 | 0.523 | 0.452 | 0.489 | 0.211 |  |  |  |  | 1.11
6 | NCI-H727 | 0.587 | 0.7 | 0.712 | 0.416 | 0.591 | 0.165 | 0.0475 | 0.547 | 0.488 | 0.402 | 0.177 |  |  |  |  | 0.633 | 0.494 | 0.676 | 0.497 | 0.365
7 | NCI-H1563 |  |  |  |  | 0.625 | 0.601 | 0.458 | 0.589 | 0.569 | 0.516 | 0.479 | 0.741 | 0.698 | 0.544 | 0.619 |  |  |  |  | 0.562
8 | NCI-H1703 | 0.173 | 0.0985 | 0.093 | 0.0575 | 0.262 | 0.157 | 0.129 |  |  |  |  |  |  |  |  |  |  |  |  | 0.216
9 | NCI-H2342 | 0.476 | 0.37 | 0.434 | 0.367 |  |  |  | 0.482 | 0.596 | 0.355 | 0.292 | 0.732 | 0.634 | 0.728 | 0.705 | 0.495 | 0.489 | 0.517 | 0.411 | 
10 | SW 900 | 0.774 | 0.596 | 0.264 | 0.0917 |  |  |  | 0.521 | 0.337 | 0.178 | 0.0792 | 0.495 | 0.453 | 0.289 | 0.0977 | 0.531 | 0.453 | 0.168 | 0.0979 | 
